Measured values from patent publication US20040259835A1, “Stabilized brivudine topical formulations” (priority 2001, published 2004).
Like-named read-outs stand apart in the source and are kept apart here.

How the values were obtained:
[1] = Photostabilization of brivudine by admixed substances (formulation not specified); assay type: physicochemical
Description: DE 3136282 proposes to protect light-unstable drugs using substances with a similar absorption profile. The protective effect is supposed to depend on the similarity between the absorption spectra of the stabilizer and of the drug, that is, the larger is the overlapping between the two absorption spectra, the better is the photo-stabilization. According to DE3136282, the ICH (International Conference on Harmonisation) guideline CPMP/ICH/279/95 was followed to determine brivudine degradation. Several substances, including pharmaceutical excipients, colorants or photostable drugs were tested in admixture with brivudine.

[2] = UV light; isomerization to Z-BVDU and other decomposition products; state of the art; cited from earlier work
[3] = test system: varicella-zoster virus (VZV); settings: state of the art; cited from earlier work
[4] = test system: herpes simplex virus type 1 (HSV-1); settings: state of the art; cited from earlier work
[5] = substance in admixture with brivudine, UV irradiation

Compound	photostabilization of brivudine (in words) [1]	further results
4-Bis(polyethoxy)paraamino-benzoicacid-polyethoxy-ethylester [Uvinul ® P25]		photostabilization of brivudine (in words) [1, 5]: No effects
7-Hydroxy-8-(4-sulfonato-1-naphthylazo)-naphthalin-1,3-disulfonic acid, trisodium salt [Cochineal Red A]		fold increase of brivudine photostabilization / recovery ([1]; with respect to brivudine alone): more then threefold
O=C(c1ccc(O)cc1O)c1ccc(O)cc1O [2,2′,4,4′-tetrahydroxybenzophenon, 2,2′,4,4′-tetrahydroxy-benzophenone]	effectively stabilize	
COc1cc(O)c(C(=O)c2cc(S(=O)(=O)[O-])c(OC)cc2O)cc1S(=O)(=O)[O-].[Na+].[Na+] [2,2′-dihydroxy-4,4′-dimethoxybenzophenone-5,5′-disodium sulfonate]	effectively stabilize	
O=C(c1ccccc1)c1ccc(O)cc1O [2,4-dihydroxy benzophenone]	effectively stabilize	
COc1ccc(C(=O)c2ccccc2O)c(O)c1 [Dioxybenzone]	effectively stabilize	
O=S(=O)([O-])c1ccc2c(N=Nc3ccc(S(=O)(=O)[O-])c4ccccc34)c(O)c(S(=O)(=O)[O-])cc2c1.[Na+].[Na+].[Na+] [Food red 9, 3-Hydroxy-4-(4-sulfonato-1-naphtylazo)-naphthalin-2,7-disulfonic acid, Trisodium salt]		protection of brivudine from decomposition over the controls ([1]; versus controls): more than 30%
COc1ccc(C(=O)c2ccccc2)c(O)c1 [Oxybenzone]	effectively stabilize	
CCCCC(CC)COC(=O)c1ccc(N(C)C)cc1 (centres unmarked) [Padimate O]	No effects	
COc1cc(O)c(C(=O)c2ccccc2)cc1S(=O)(=O)O [Sulisobenzone]	effectively stabilize	
O=S(=O)([O-])c1ccc(N=Nc2ccc(O)cc2O)cc1.[Na+] [Tropaeolin 0, 2,4-dihydroxyazobenzol-4′-sulfonic acid sodium salt]	best recovery rates	degradation of brivudine (in words) [1]: nearly no degradation of brivudine was detectable
CCCCC(CC)COC(=O)c1ccc(Nc2nc(Nc3ccc(C(=O)OCC(CC)CCCC)cc3)nc(Nc3ccc(C(=O)OCC(CC)CCCC)cc3)n2)cc1 (centres unmarked) [Uvinul® T150, 2,4,6-trianilino-p-(carbo-2′-ethyl-hexyl-1′-oxi)-1,3,5-triazin]	No effects	
COc1cc(C=O)ccc1O [Vanillin]		photostabilization of brivudine (in words) [1, 5]: did not satisfactorily stabilize brivudine
O=C(O)CCCCC1CCSS1 (stereo not drawn) [alpha-liponic acid]	did not show any effect	
COc1ccc(C(=O)CC(=O)c2ccc(C(C)(C)C)cc2)cc1 [avobenzone]	stabilize brivudine, although to a lesser extent	
CC1=C(/C=C/C(C)=C/C=C/C(C)=C/C=C/C=C(C)/C=C/C=C(C)/C=C/C2=C(C)CCCC2(C)C)C(C)(C)CCC1 [beta carotene, beta-carotene]	remarkable photostabilization	
O=c1[nH]c(=O)n([C@H]2C[C@H](O)[C@@H](CO)O2)cc1/C=C/Br [brivudine, (E)-5-(2-bromovinyl)-2′-deoxyuridine]		light stability of brivudine (in words) [2]: light-instability; effectiveness against VZV (in words) [3]: very effective; effectiveness against HSV-1 (in words) [4]: very effective
N[C@@H](CS)C(=O)O [cystein]	did not show any effect	
CC1CC(OC(=O)c2ccccc2O)CC(C)(C)C1 (centres unmarked) [homosalate]	No effects	
Cc1ccc(/C=C2/C(=O)C3(C)CCC2C3(C)C)cc1 (centres unmarked) [methyl-benzylidene-camphor]	stabilize brivudine, although to a lesser extent	
CCCCC(CC)COC(=O)C(C#N)=C(c1ccccc1)c1ccccc1 (centres unmarked) [octocrylene]	stabilize brivudine, although to a lesser extent	
CCCCC(CC)COC(=O)C=Cc1ccc(OC)cc1 (centres unmarked) [octyl-methoxy-cinnamate]	stabilize brivudine, although to a lesser extent	
Type I: 2-(1,3-Dioxo-2-indanyl)-chinolin-disulfonic acid, Disodium salt Type II: 2-(1,3-Dioxo-2-indanyl)-methylchinolin-disulfonic acid, Disodium salt [Quinoline Yellow]		photostabilization of brivudine (in words) [1, 5]: did not satisfactorily stabilize brivudine
